Experimental data published in the supplement of paper PMC11208160.

Assay: recombinant UMI read abundance after kanamycin selection (control-corrected) (log10(CPM+1)); higher = more efficient recombination; extreme values may be limits of the assay; sequences stand for … in AGTGCAGAGAAAATCGGCCAGTTTTCTCTGCCTGCAGTCCGCATGCCGTGGGACCCCTTGGGTTCTAACCTGTTGCCTAGATTTATGCAGCGGACTGCCTTTCTCCCAAAGTGATAAACCGG…AGGTTGGTTTCACT; site = the 11-nt donor
Procedure, shortened: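 Pooled Escherichia coli screen of donor and donor-binding-loop pairs for the IS621 bridge recombinase. Each pair sits with a 12-nt UMI on a plasmid carrying a promoterless kanamycin gene. The library was co-electroporated with a target plasmid encoding a fixed target and T7-inducible recombinase, then plated with IPTG (0.07 mM) plus kanamycin, or unselected, each in two replicates. Recombinant UMIs were PCR-amplified across the donor–target junction and sequenced. Counts became CPM, averaged over replicates, scaled by control-derived factors and reported as log10(CPM+1).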
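Note: IS621 bridge recombinase in Escherichia coli cells against a fixed T5 target plasmid.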

Sequence | recombinant UMI read abundance (log10)
CCAACTACATGGACCGGTTTTCCCGGTAATCCGTATTTGGC (site CCAACTACTGC) | 0
CCAATCGCATGGACCGGTTTTCCCGGTAATCCGTATTTGCA (site CCAATCGCTTG) | 0
CCAATTACATGGACCGGTTTTCCCGGTAATCCGTATTTGCC (site CCAATTACTGG) | 0
CCACACACATGGACCGGTTTTCCCGGTAATCCGTATTTGCA (site CCACACACTTG) | 2.07
CCACCCTCATGGACCGGTTTTCCCGGTAATCCGTATTTGCT (site CCACCCTCTAG) | 1.95
CCACGGACATGGACCGGTTTTCCCGGTAATCCGTATTTGGT (site CCACGGACTAC) | 0.0137
CCACGGCCATGGACCGGTTTTCCCGGTAATCCGTATTTGTA (site CCACGGCCTTA) | 0
CCACGTCCATGGACCGGTTTTCCCGGTAATCCGTATTTGGT (site CCACGTCCTAC) | 0.0291
CCACTTGCATGGACCGGTTTTCCCGGTAATCCGTATTTGTG (site CCACTTGCTCA) | 0.358
CCAGATGCATGGACCGGTTTTCCCGGTAATCCGTATTTGCG (site CCAGATGCTCG) | 1.59
CCAGGATCATGGACCGGTTTTCCCGGTAATCCGTATTTGAT (site CCAGGATCTAT) | 0
CCAGGCGCATGGACCGGTTTTCCCGGTAATCCGTATTTGAT (site CCAGGAGCTAT) | 1.06
CCAGGCGCATGGACCGGTTTTCCCGGTAATCCGTATTTGAT (site CCAGGCGCTAT) | 1.24
CCAGGCGCATGGACCGGTTTTCCCGGTAATCCGTATTTGAT (site CCAGGGGCTAT) | 0.00758
CCAGGCGCATGGACCGGTTTTCCCGGTAATCCGTATTTGAT (site CCAGGTGCTAT) | 0.707
CCAGGGGCATGGACCGGTTTTCCCGGTAATCCGTATTTGAT (site CCAGGAGCTAT) | 0.735
CCAGGGGCATGGACCGGTTTTCCCGGTAATCCGTATTTGAT (site CCAGGCGCTAT) | 0.972
CCAGGGGCATGGACCGGTTTTCCCGGTAATCCGTATTTGAT (site CCAGGGGCTAT) | 1.04
CCAGGGGCATGGACCGGTTTTCCCGGTAATCCGTATTTGAT (site CCAGGTGCTAT) | 0.888
CCAGTACCATGGACCGGTTTTCCCGGTAATCCGTATTTGCA (site ACAGTATCTTG) | 0
CCAGTACCATGGACCGGTTTTCCCGGTAATCCGTATTTGCA (site CCAGTACCTTG) | 0
CCAGTATCATGGACCGGTTTTCCCGGTAATCCGTATTTGAA (site ACAGTATCTTG) | 0.128
CCAGTATCATGGACCGGTTTTCCCGGTAATCCGTATTTGAA (site CCAGTATCTTT) | 1.05
CCAGTATCATGGACCGGTTTTCCCGGTAATCCGTATTTGAA (site CTAGTATCTGT) | 0
CCAGTATCATGGACCGGTTTTCCCGGTAATCCGTATTTGCC (site ACAGTATCTTG) | 0.0067

Sequence | recombinant UMI read abundance (log10)
CCAGTATCATGGACCGGTTTTCCCGGTAATCCGTATTTGCC (site CCAGTATCTGG) | 1.44
CCAGTATCATGGACCGGTTTTCCCGGTAATCCGTATTTGCC (site CTAGTATCTGT) | 0
CCAGTCACATGGACCGGTTTTCCCGGTAATCCGTATTTGGA (site CCAGTCACTTC) | 0.00572
CCAGTGTCATGGACCGGTTTTCCCGGTAATCCGTATTTGCA (site ACAGTATCTTG) | 0
CCAGTGTCATGGACCGGTTTTCCCGGTAATCCGTATTTGCA (site CCAGTGTCTTG) | 1.5
CCAGTTTCATGGACCGGTTTTCCCGGTAATCCGTATTTGAC (site CCAGTTTCTGT) | 0.759
CCAGTTTCATGGACCGGTTTTCCCGGTAATCCGTATTTGAC (site CTAGTATCTGT) | 0
CCATAAACATGGACCGGTTTTCCCGGTAATCCGTATTTGAA (site CCATAAACTTT) | 1.22
CCATACTCATGGACCGGTTTTCCCGGTAATCCGTATTTGCA (site ACATACTCTTG) | 0.648
CCATACTCATGGACCGGTTTTCCCGGTAATCCGTATTTGCA (site CCATACTCTTG) | 2.11
CCATACTCATGGACCGGTTTTCCCGGTAATCCGTATTTGCA (site GCATACTCTTG) | 0
CCATACTCATGGACCGGTTTTCCCGGTAATCCGTATTTGCA (site TCATACTCTTG) | 0
CCATACTCATGGACCGGTTTTCCCGGTAATCCGTATTTGGC (site CCATACTCTGC) | 0.585
CCATAGCCATGGACCGGTTTTCCCGGTAATCCGTATTTGCC (site CCATAGCCTGG) | 0
CCATAGCCATGGACCGGTTTTCCCGGTAATCCGTATTTGCC (site CCCTAGCCTGG) | 0
CCATAGCCATGGACCGGTTTTCCCGGTAATCCGTATTTGCC (site CCGTAGCCTGG) | 0
CCATAGCCATGGACCGGTTTTCCCGGTAATCCGTATTTGCC (site CCTTAGCCTGG) | 0
CCATAGTCATGGACCGGTTTTCCCGGTAATCCGTATTTGAA (site CCATAGTCTTT) | 1.86
CCATATGCATGGACCGGTTTTCCCGGTAATCCGTATTTGCA (site CCATATGCTTG) | 0.198
CCATCCTCATGGACCGGTTTTCCCGGTAATCCGTATTTGGT (site CCATCCTCTAC) | 1.38
CCATCTACATGGACCGGTTTTCCCGGTAATCCGTATTTGTG (site ACATCTACTCA) | 0.0369
CCATCTACATGGACCGGTTTTCCCGGTAATCCGTATTTGTG (site CCATCTACTCA) | 0.0215
CCATCTACATGGACCGGTTTTCCCGGTAATCCGTATTTGTG (site GCATCTACTCA) | 0.00588
CCATCTACATGGACCGGTTTTCCCGGTAATCCGTATTTGTG (site TCATCTACTCA) | 0
CCATCTGCATGGACCGGTTTTCCCGGTAATCCGTATTTGAA (site CCATCTGCTTT) | 1.91

Sequence | recombinant UMI read abundance (log10)
CCATGGGCATGGACCGGTTTTCCCGGTAATCCGTATTTGAG (site CCATGGGCTCT) | 0.633
CCATGGTCATGGACCGGTTTTCCCGGTAATCCGTATTTGAA (site CCATGGTCTTT) | 0.724
CCATGTGCATGGACCGGTTTTCCCGGTAATCCGTATTTGAA (site CCATGTGCTTT) | 0.336
CCCACCCCATGGACCGGTTTTCCCGGTAATCCGTATTTGGC (site CCCACCCCTGC) | 0
CCCACTACATGGACCGGTTTTCCCGGTAATCCGTATTTGTT (site CCCACTACTAA) | 0.141
CCCAGTCCATGGACCGGTTTTCCCGGTAATCCGTATTTGCA (site CCCAGTCCTTG) | 0
CCCAGTCCATGGACCGGTTTTCCCGGTAATCCGTATTTGCA (site CCCCGTCCTTG) | 0
CCCAGTCCATGGACCGGTTTTCCCGGTAATCCGTATTTGCA (site CCCGGTCCTTG) | 0.00873
CCCAGTCCATGGACCGGTTTTCCCGGTAATCCGTATTTGCA (site CCCTGTCCTTG) | 0.0169
CCCATATCATGGACCGGTTTTCCCGGTAATCCGTATTTGAT (site CCCATATCTAT) | 0
CCCATATCATGGACCGGTTTTCCCGGTAATCCGTATTTGTA (site CCCATATCTAA) | 0.0053
CCCATATCATGGACCGGTTTTCCCGGTAATCCGTATTTGTA (site CCCATATCTCA) | 0.0171
CCCATATCATGGACCGGTTTTCCCGGTAATCCGTATTTGTA (site CCCATATCTGA) | 0
CCCATATCATGGACCGGTTTTCCCGGTAATCCGTATTTGTA (site CCCATATCTTA) | 0.903
CCCATATCATGGACCGGTTTTCCCGGTAATCCGTATTTGTC (site ACCATATCTGA) | 0
CCCATATCATGGACCGGTTTTCCCGGTAATCCGTATTTGTC (site CACATATCTGA) | 0
CCCATATCATGGACCGGTTTTCCCGGTAATCCGTATTTGTC (site CCAATATCTGA) | 0
CCCATATCATGGACCGGTTTTCCCGGTAATCCGTATTTGTC (site CCCAAATCTGA) | 0
CCCATATCATGGACCGGTTTTCCCGGTAATCCGTATTTGTC (site CCCACATCTGA) | 0
CCCATATCATGGACCGGTTTTCCCGGTAATCCGTATTTGTC (site CCCAGATCTGA) | 0
CCCATATCATGGACCGGTTTTCCCGGTAATCCGTATTTGTC (site CCCATAACTGA) | 0
CCCATATCATGGACCGGTTTTCCCGGTAATCCGTATTTGTC (site CCCATACCTGA) | 0.34
CCCATATCATGGACCGGTTTTCCCGGTAATCCGTATTTGTC (site CCCATAGCTGA) | 0
CCCATATCATGGACCGGTTTTCCCGGTAATCCGTATTTGTC (site CCCATATCTAA) | 0.00469
CCCATATCATGGACCGGTTTTCCCGGTAATCCGTATTTGTC (site CCCATATCTCA) | 0
